US4728658A, “Pyridine derivatives” (John Wyeth & Brother Limited, priority 1984, dated 1988)
Like-named read-outs stand apart in the source and are kept apart here.

Molecular target: T1, H^+ /K^+ ATPase (Oryctolagus cuniculus, UniProt P27112)
T1 construct: Rabbit gastric glands are isolated from gastric mucosa; from tissue; host or cells: rabbit isolated gastric glands (gastric mucosa, corpus region of the stomach)
Assay: Inhibition of 14C-aminopyrine uptake in rabbit isolated gastric glands stimulated by DBcAMP or high K+ (anti-secretory activity)
Assay type: cell-based
Conditions: for antisecretory activity: result in words in the introduction, test not named; for inhibition at 100 µM: 10^-4 M, % inhibition of maximum response to secretagogue
Experimental: Compounds of formula I may be tested for anti-secretory activity by their ability to inhibit the highly specific proton transporting enzyme H^+ /K^+ ATPase.
Potential H^+ /K^+ ATPase inhibitors are evaluated by a technique involving the measurement of aminopyrine accumulation in rabbit isolated gastric glands. Aminopyrine accumulates in acid-secreting cells; therefore, uptake of aminopyrine is increased by secretagogues and an inhibitor of acid secretion will reduce the response to one or more secretagogues depending upon its site of action.
The following test procedure is used:
Rabbit gastric glands are isolated from gastric mucosa from the corpus region of the stomach by a method based on one described by Berglindh T., Obrink K. J., Acta Physiol. Scand.
Compounds are tested at a concentration of 10^-4 M, for their ability to inhibit ^14 C-aminopyrine uptake in gastric glands, stimulated by DBcAMP and high K^+ respectively. Results are expressed as the % inhibition of the maximum response to the secretagogue induced by the test compound.

[1] = 14C-aminopyrine uptake in rabbit gastric glands stimulated by DBcAMP, read-out: % Inhibition to stimulation by: DBcAMP
[2] = 14C-aminopyrine uptake in rabbit gastric glands stimulated by high K^+, read-out: % Inhibition to stimulation by: K^+

T1 sequence (P27112 whole entry): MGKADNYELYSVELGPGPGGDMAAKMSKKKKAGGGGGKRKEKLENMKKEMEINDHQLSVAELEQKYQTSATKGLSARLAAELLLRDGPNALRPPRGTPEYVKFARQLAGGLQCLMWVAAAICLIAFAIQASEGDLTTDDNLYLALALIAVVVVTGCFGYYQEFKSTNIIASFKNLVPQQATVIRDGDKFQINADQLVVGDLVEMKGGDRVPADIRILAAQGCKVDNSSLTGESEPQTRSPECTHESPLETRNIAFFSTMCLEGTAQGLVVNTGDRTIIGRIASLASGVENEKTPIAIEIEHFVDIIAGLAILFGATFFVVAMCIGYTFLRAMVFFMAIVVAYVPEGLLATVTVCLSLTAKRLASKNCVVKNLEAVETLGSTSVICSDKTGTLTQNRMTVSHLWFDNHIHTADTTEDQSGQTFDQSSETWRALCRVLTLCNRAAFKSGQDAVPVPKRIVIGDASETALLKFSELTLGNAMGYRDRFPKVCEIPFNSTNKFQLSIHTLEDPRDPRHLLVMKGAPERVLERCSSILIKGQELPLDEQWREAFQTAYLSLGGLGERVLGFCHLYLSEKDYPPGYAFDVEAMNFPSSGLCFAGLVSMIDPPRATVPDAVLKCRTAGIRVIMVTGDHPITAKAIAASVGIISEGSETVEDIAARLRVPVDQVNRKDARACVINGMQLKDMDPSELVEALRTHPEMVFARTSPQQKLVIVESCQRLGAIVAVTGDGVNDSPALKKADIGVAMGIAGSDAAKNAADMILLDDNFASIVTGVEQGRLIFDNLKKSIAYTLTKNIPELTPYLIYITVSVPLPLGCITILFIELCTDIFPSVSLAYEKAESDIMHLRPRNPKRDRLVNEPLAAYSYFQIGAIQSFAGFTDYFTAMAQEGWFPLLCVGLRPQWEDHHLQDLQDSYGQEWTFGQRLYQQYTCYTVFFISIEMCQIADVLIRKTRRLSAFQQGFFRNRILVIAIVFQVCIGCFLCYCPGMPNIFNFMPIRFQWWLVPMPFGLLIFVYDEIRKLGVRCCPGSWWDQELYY
T1 sequence (P18597 whole entry partner): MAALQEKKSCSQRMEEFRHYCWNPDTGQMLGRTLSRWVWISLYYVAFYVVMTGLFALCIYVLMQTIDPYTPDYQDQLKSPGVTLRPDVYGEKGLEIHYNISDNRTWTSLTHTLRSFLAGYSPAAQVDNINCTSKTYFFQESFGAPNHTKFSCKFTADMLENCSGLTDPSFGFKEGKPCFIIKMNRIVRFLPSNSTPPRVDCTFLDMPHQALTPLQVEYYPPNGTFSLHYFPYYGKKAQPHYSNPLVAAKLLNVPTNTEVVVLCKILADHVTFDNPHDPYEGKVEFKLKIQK

Row | SMILES | inhibition at 100 µM [1] [%] | inhibition at 100 µM [2] [%] | antisecretory activity
1 | O=C(Nc1ccccc1Cl)c1cc[n+]([O-])cc1 [2-chlorophenyl, reference compound] |  |  | not active
2 | O=C(Nc1ccc(Cl)cc1NC(=O)c1cc[n+]([O-])cc1)c1cc[n+]([O-])cc1 [4-Chloro-N,N'-1,2-phenylenebis(4-pyridinecarboxamide-1-oxide)] | 20.5 | 27 | 
3 | Nc1ccc(NC(=O)c2cc[n+]([O-])cc2)cc1 [4-amino, reference compound] |  |  | inactive
4 | Nc1cccc(NC(=O)c2cc[n+]([O-])cc2)c1 [Example 3-amino, reference compound] |  |  | inactive
5 | Nc1cc(Cl)c(Cl)cc1NC(=O)c1cc[n+]([O-])cc1 [N-(2-amino-4,5-dichlorophenyl)-4-pyridinecarboxamide-1-oxide] |  | 36 | 
6 | O=C(Nc1ccc(Cl)cc1)c1cc[n+]([O-])cc1 [N-(4-chlorophenyl)-4-pyridinecarboxamide-1-oxide] | 22 | 32 | exhibited antisecretory activity
7 | Nc1ccccc1NC(=O)c1ccncc1 [N--(2-aminophenyl)pyridine-4-carboxamide, N-(2-aminophenyl)-4-pyridinecarboxamide] |  | 54 | 
8 | O=C(Nc1ccccc1)c1cc[n+]([O-])cc1 [phenyl, reference compound] |  |  | not active

Continued, in another order:

Row | inhibition at 100 µM [1] [%] | inhibition at 100 µM [2] [%] | SMILES | antisecretory activity
9 | 106 | 130 | Nc1ccccc1NC(=O)c1cc[n+]([O-])cc1 [N-(2-aminophenyl)pyridine-4-carboxamide-1-oxide] | exhibited antisecretory activity
10 | 33 | 84 | O=C(Nc1ccc([N+](=O)[O-])cc1)c1cc[n+]([O-])cc1 [N-(4-nitrophenyl)pyridine-4-carboxamide-1-oxide] | 
11 |  | 168 | O=C(Nc1ccc(Cl)c(C(F)(F)F)c1)c1cc[n+]([O-])cc1 [N-[4-chloro-3-(trifluoromethyl)phenyl]-4-pyridinecarboxamide-1-oxide] | 
